US8853424B2 (Japan Science and Technology Agency, priority 2008, dated 2014)
Read-outs that look alike come from different tables or passages of the source.

Columns and labels:
[1] = test system: SOC (store operated calcium channel); assay: Measurement of SOC IC50 (thapsigargin store depletion, calcium re-addition, CHO cells); assay type: cell-based; conditions: read-out: SOC IC50
Description: The SOC (store operated calcium channel)-suppressive action can be measured by the method described in the Example and using, for example, FDSS 3000.
CHO cell culture medium was replaced with a BSS solution which is an extracellular fluidfree of calcium, the compound of the present invention was added 1 min later, and 1 μM thapsigargin was allowed to act thereon 2 min later to deplete intracellular calcium store. […]

[2] = test system: transglutaminase (TGase); assay: Measurement of TG (TGase inhibitory activity, monodansyl cadaverine / N,N-dimethylcasein fluorescence, FDSS 3000); assay type: biochemical
In short: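 Compound (1 μL of 10 mM stock) added to 0.1 mL reaction: 100 mM HEPES-NaOH pH 7.5, 1 mM CaCl2, 20 μM monodansyl cadaverine, 0.05 mg/mL N,N-dimethylcasein, 5 μg/mL TGase. Rate of fluorescence change at 340 nm measured; DMSO control set to 100; TG50 is the concentration halving activity.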

[3] = test system: Truncated N-terminal huntington 150 Q-EGFP-Neuron 2a cells; assay: Measurement of x-Fold (polyglutamine aggregation inhibitory activity); assay type: cell-based
Description: In the present invention, the polyglutamine aggregation inhibitory activity (x-Fold) can be measured, for example, by the method described in the Example.
The number of the aggregated cells, and the total number of cells were counted by Array Scan V T1 (manufactured by Cellomics, Pittuburg, USA), and the ratio of the aggregated cells to the total number of cells was determined (x-Fold). […]

[4] = CHO cells, 1 μM thapsigargin, 2 mM calcium chloride
[5] = TGase activity with compound (10 mM, 1 μL in 0.1 ml enzyme reaction solution), DMSO control taken as 100
[6] = TGase inhibitory activity measurement, unit not given
[7] = polyglutamine aggregation, Truncated N-terminal huntington 150 Q-EGFP-Neuron 2a cells
[8] = ratio of aggregated cells to total number of cells, compound 20 μM, 20 hr, almost 1 without compound, smaller = stronger inhibition
[9] = Cricetulus griseus, CHO, CHO cells, 1 μM thapsigargin, 2 mM calcium chloride
[10] = Cricetulus griseus, CHO, Table 1
[11] = TGase inhibitory activity value, Table 1
[12] = polyglutamine aggregation inhibitory activity, Table 1

Compound	IC50 [1, 4] [µM]	TGase activity remaining (% of DMSO control = 100) [2, 5]	TGase activity remaining (% of DMSO control = 100) [2, 6]	IC50 [1, 9] [µM]	x-Fold [3, 7]	x-Fold [3, 8]	x-Fold [3, 12]	further results
NC(=O)CC(N)C(=O)OB(c1ccccc1)c1ccccc1 (centres unmarked) [Example 270, diphenyl(asparaginate-O,N)borane]		111		0.7		0.54		IC50 [1, 10]: 0.7 µM; TGase activity remaining (% of DMSO control = 100) ([2]; TGase inhibitory activity value, Table 1, listed as 855): 111; x-Fold ([3]; polyglutamine aggregation inhibitory activity, Table 1, listed as 855): 0.54
OB(c1ccc(Oc2ccc(B(O)c3ccc(C(F)(F)F)cc3)cc2)cc1)c1ccc(C(F)(F)F)cc1 [Example 325, bis(4-(4-trifluoromethylphenylhydroxyboryl)phenyl)ether]		92		4		0.99	0.99	IC50 [1, 10]: 4 µM; TGase activity remaining (% of DMSO control = 100) [2, 11]: 92
Cc1ccc(B(O)c2ccc(COCc3ccc(B(O)c4ccc(C)c(Cl)c4)cc3)cc2)cc1Cl [Example 322, bis(4,4′-(3-chloro-4-methylphenylhydroxyboryl)benzyl)ether]	0.2	98				0.32		
Cc1ccc(B(OCCN)c2ccc(COCc3ccc(B(OCCN)c4ccc(C)c(Cl)c4)cc3)cc2)cc1Cl [Example 420, bis(4,4′-(3-chloro-4-methylphenyl-aminoethoxyboryl)benzyl)ether]	1.2	−3	−3		0.81	0.81		
diphenyl(tyrosinate-O,N)borane [Example 264]	5	109				1.00	1.00	TGase activity remaining (% of DMSO control = 100) [2, 11]: 109
NC(=O)CC(N)C(=O)OB(c1ccccc1)c1ccc(Oc2ccc(B(OC(=O)C(N)CC(N)=O)c3ccccc3)cc2)cc1 (centres unmarked) [Example 274, bis(4,4′-(phenylasparagineboryl)phenyl)ether]	0.3	56				0.59		
COc1ccc(B(OCCN)c2ccc(COCc3ccc(B(OCCN)c4ccc(OC)cc4)cc3)cc2)cc1 [Example 412, bis(4,4′-(p-methoxyphenyl-aminoethoxyboryl)benzyl)ether]	2	65	65		0.89	0.89		
Cc1ccc(B(OC(=O)C(N)CC(N)=O)c2ccc(C)c(Cl)c2)cc1Cl (centres unmarked) [Example 282, di(3-chloro-4-methylphenyl)(asparaginate-O,N)borane]		112		0.3		0.95		
CCCCC(N)C(=O)OB(c1ccc(C)c(Cl)c1)c1ccc(C)c(Cl)c1 (centres unmarked) [Example 292, di(3-chloro-4-methylphenyl)(norloysinate-O,N)borane]		146		1		1.00		IC50 [1, 10]: 1 µM; TGase activity remaining (% of DMSO control = 100) ([2]; TGase inhibitory activity value, Table 1, listed as 5020): 146; x-Fold ([3]; polyglutamine aggregation inhibitory activity, Table 1, listed as 5020): 1.00
OB(c1ccccc1)c1ccc(COCc2ccccc2B(O)c2ccccc2)cc1 [Example 331, (2-(phenylhydroxyboryl)benzyl)(4-(phenylhydroxyboryl)benzyl)ether]		101		1		0.98	0.98	IC50 [1, 10]: 1 µM; TGase activity remaining (% of DMSO control = 100) [2, 11]: 101
Cc1ccc(B(Sc2ccccc2N)c2ccc(C)c(Cl)c2)cc1Cl [Example 283, di(3-chloro-4-methylphenyl) 2-aminophenylthioborane]		12		0.9		0.83	0.83	IC50 [1, 10]: 0.9 µM; TGase activity remaining (% of DMSO control = 100) [2, 11]: 12
NCCOB(c1ccc(Cl)c(F)c1)c1ccc(Cl)c(F)c1 [Example 234, di(4-chloro-3-fluoro-phenyl) 2-aminoethylborinate]		98		0.5		1.07		IC50 [1, 10]: 0.5 µM; TGase activity remaining (% of DMSO control = 100) ([2]; TGase inhibitory activity value, Table 1, listed as 4143): 98; x-Fold ([3]; polyglutamine aggregation inhibitory activity, Table 1, listed as 4143): 1.07

Second part, led by results:

IC50 [1, 4] [µM]	TGase activity remaining (% of DMSO control = 100) [2, 5]	TGase activity remaining (% of DMSO control = 100) [2, 6]	IC50 [1, 9] [µM]	Compound	x-Fold [3, 7]	x-Fold [3, 8]	x-Fold [3, 12]	further results
1.5	48	48		bis(3,3′-(phenyl-2-benzyl-2-amino-ethoxyboryl)benzyl)ether [Example 481]	0.80	0.80		
1.2	−1	−1		CNCCOB(c1ccc(COCc2ccc(B(OCCNC)c3ccc(C)c(Cl)c3)cc2)cc1)c1ccc(C)c(Cl)c1 [Example 421, bis(4,4′-(3-chloro-4-methylphenyl-N-methylaminoethoxyboryl)benzyl)ether]	1.03	1.03	0.87	
1.5	53	53		CN(C)CCOB(c1ccccc1)c1ccc(COc2ccc(B(OCCN(C)C)c3ccccc3)cc2)cc1 [Example 428, (4-phenyl-N,N-dimethylaminoethoxyborylphenyl) (4′-phenyl-N,N-dimethylaminoethoxyborylbenzyl)ether]	0.82	0.82	0.98	
0.4	26	26		c1ccc(B(OCC2CCCN2)c2cccc(COCc3cccc(B(OCC4CCCN4)c4ccccc4)c3)c2)cc1 (centres unmarked) [Example 460, bis(3,3′-(phenyl-2-pyrrolidinomethoxyboryl)benzyl)ether]	0.95	0.95		
0.6	21	21		NCCCCC(N)C(=O)OB(c1ccccc1)c1cccc(COCc2cccc(B(OC(=O)C(N)CCCCN)c3ccccc3)c2)c1 (centres unmarked) [Example 475, bis(3,3′-(phenyl-lysineboryl)benzyl)ether]	1.01	1.01		
1.5	59	59		NC(COB(c1ccccc1)c1ccc(Oc2ccc(B(OCC(N)Cc3ccccc3)c3ccccc3)cc2)cc1)Cc1ccccc1 (centres unmarked) [Example 480, bis(4,4′-(phenyl-2-benzyl-2-amino-ethoxyboryl)phenyl)ether]	0.66	0.66		
0.8	20	20		CNCCOB(c1ccccc1)c1ccc(COc2ccc(B(OCCNC)c3ccccc3)cc2)cc1 [Example 427, (4-phenyl-N-methylaminoethoxyborylphenyl) (4′-phenyl-N-methylaminoethoxyborylbenzyl)ether]	0.73	0.73	1.02	
1	47	47		NCCC(N)C(=O)OB(c1ccccc1)c1cccc(COCc2cccc(B(OC(=O)C(N)CCN)c3ccccc3)c2)c1 (centres unmarked) [Example 472, bis(3,3′-(phenyl-2,4-diaminobutyric acid boryl)benzyl)ether]	0.95	0.95		
1.2	27	27		Cc1ccc(B(OCC2CCCCN2)c2ccc(COCc3ccc(B(OCC4CCCCN4)c4ccc(C)c(Cl)c4)cc3)cc2)cc1Cl (centres unmarked) [Example 423, bis(4,4′-(3-chloro-4-methylphenyl-2-piperidylmethoxyboryl)benzyl)ether]	0.76	0.76		
1.2	22	22		CN(C)CCOB(c1ccc(COCc2ccc(B(OCCN(C)C)c3ccc(C(F)(F)F)cc3)cc2)cc1)c1ccc(C(F)(F)F)cc1 [Example 424, bis(4,4′-(p-trifluoromethylphenyl-N,N-dimethylaminoethoxyboryl)benzyl)ether]	1.03	1.03	0.69	
0.5	29	29		c1ccc(B(OCC2CCCN2)c2ccc(COCc3ccc(B(OCC4CCCN4)c4ccccc4)cc3)cc2)cc1 (centres unmarked) [Example 452, bis(4,4′-(phenyl-2-pyrrolidinemethoxyboryl)benzyl)ether]	0.96	0.96		
